Data on one compound can be found in US8071645B2, “Systems and methods for treating human inflammatory and proliferative diseases and wounds, with fatty acid metabolism inhibitors and/or glycolytic inhibitors” (The Regents of the University of Colorado, priority 2003, dated 2011).

The test system of one assay is HL60 MDR cells. Nature of the assay: % death of HL60 MDR cells by flow cytometry. The assay is classed as cell-based, human. The note with it: HL60 MDR. Here is the method: Dot plots as a function of live versus dead cells. The cells were cultured at a concentration of 0.5 to 1 million cells per ml. Cells were untreated or treated with etomoxir or 2-deoxy-D-glucose at a concentration of 2.5 mM at the indicated concentrations for either 24 or 48 hours. In additional experiments, under each of these culture conditions, the cells were cultured for 24 hours at which time point, polyclonal anti-UCP-2 was added at a 1:1000 dilution of stock provided by Alpha Diagnostics, San Antonio, Tex. Cells were harvested and analyzed by flow cytometry. Each dot on the dot plots of FIGS. 1, 3, 5, 7, 9, and 11 represents one cell. Five thousand cells were assessed for forward scatter (FS), as a function of cell size, versus side scatter (SS), as a function of cellular granularity. The upper ellipse represents live cells by these criterion and the lower ellipse in each dot plot represents the dead cells.
Statistical Analysis, Percents, and Geometric Mean Values Percents. Gating is a tool provided by Cell Quest software and allows for the analysis of a certain population of cells. Gating around both the live and dead cell populations gave a percent of the cell numbers that was in each population. After the gates were drawn, a percent value of dead cells was calculated by taking the number of dead cells divided by the number of total cells and multiplying by one hundred.
This example illustrates an embodiment of the invention, where multi-drug resistant cancer cells were exposed to compositions of the invention. Analysis of the cells was performed using flow cytometry. The flow cytometry experiments were performed as follows. The cells were harvested, counted, and resuspended as described above. For DNA staining, the cells were washed and resuspended in ice-cold PBS and fixed by the dropwise addition of 95% ethanol. The cells were then incubated for 30 minutes on ice, washed, and resuspended in PBS containing 1% formaldehyde and 0.01% Tween. The cells were incubated with 50 units of DNAse and washed with PBS containing 5% DNAse. The cells were then incubated with anti DNA Fab (166, kind gift of Dr. Susan Wallace, University of Vermont), then washed and stained with a fluorescein conjugated second step anti-mouse immunoglobulin. The cells were then washed and resuspended in PBS/3% BSA/1% formaldehyde. The cells were stained for intracellular H2O2 using 6-carboxy-2′,7′-dichlorodihydrofluorescein diacetate (DCF-DA, Molecular Probes, Eugene, Oreg.). The cells were incubated with 1 mM DCF-DA for 20 minutes, washed twice in PBS containing 5% fetal calf serum and analyzed using flow cytometry. The mitochondrial membrane potential was assessed using MitoTracker Red (CM-H2XROS, Molecular Probes, Eugene, Oreg.). The cells were resuspended in warm (37° C.) PBS containing a final concentration of 0.5 micromolar of dye. The cells were then incubated for 30 minutes, pelleted, and resuspended in prewarmed medium for analysis. The data was acquired on a Coulter Elite Epics or Excel flow cytometer (Coulter, Hialeah, Fla.) and analyzed with CellQuest software, (Becton Dickinson, San Jose, Calif.). […] Each sample population was classified for cell size (forward scatter) and complexity (side scatter), gated on a population of interest and evaluated using 40,000 cells. Each figure describing flow cytometric data represents one of at least four replicate experiments.
All cell lines in this example were cultured in RPMI 1640 culture medium. The medium was supplemented with 5% fetal bovine serum (“FBS”), 2 mM L-Glutamine, 500 units/mL pennicillin/500 micrograms/mL of streptomycin, 10 mM HEPES Buffer, 10^−5 M 2-mercaptoethanol (“2-ME”), 1 mM MEM Sodium Pyruvate, and 0.04 micrograms/mL of Gentamicin (All reagents from Gibco BRL). The cells were maintained at 37° C. in a humidified atmosphere under 5% CO2 in air using standard cell culture techniques known to those of ordinary skill in the art. […]

The next assay deals with HL60 MDR tumor. Nature of the assay: HL60 MDR tumor implanted in nude mice, tumor volume. Type of assay: in vivo. The source says: Tumor implantation. Mice were purchased from the Animal Production Program of National Cancer Institute, Frederick, Md. The animals used were Athymic Ncr-nu/nu (strain code 01B74). HL60 MDR cells were harvested and reconstituted at 1 million cells per 100 microliters of phosphate buffered saline. One million tumor cells per injection site were implanted subcutaneously on two sites of the animal's back. Treatments began at exactly seven days post tumor implantation. Tumor size/volume was monitored twice weekly using measurement calipers, with the formula Tumor Volume=π×(short diameter)^2×(long diameter)/6.
Mice experiments with fatty acid metabolism and glycolytic inhibitors. Fatty acid metabolism inhibitors were exemplified by etomoxir at 200 micrograms/day. Glycolytic inhibitors were exemplified by 2-deoxy-D-glucose at 2.5 mM in 100 microliters daily. The combination was administered daily, etomoxir at 200 micrograms and 2-deoxy-D-glucose at 2.5 mM in 100 microliters. All drugs were administered intra-peritoneally. 5-Fluoro-uracil, at 20 mg per kilogram mouse, was injected intra-peritoneally once a week
HL60 MDR human leukemia cells were cultured and implanted in nude mice as described above under “Materials and Methods”. The mice were given 200 ug of Etomoxir, 2.5 mM 2-Deoxy-D-glucose, or both 200 ug of Etomoxir and 2.5 mM 2-Deoxy-D-glucose given daily by IP injection. Treatment began exactly one week after tumor implantation.

In the case of `CCOC(=O)C1(CCCCCCOc2ccc(Cl)cc2)CO1` (stereo not shown) [etomoxir, 2-(6-(4-chlorophenoxy)-hexyl)-oxirane-2-carboxylic acid ethyl ester], the “percent of cell deaths” value in the assay with HL60 MDR cells (24 hours, 2-deoxy-D-glucose at 2.5 mM, etomoxir as in FIG. 27) stood at 11%; in the assay with HL60 MDR cells (48 hours, concentrations as in FIG. 31), 14%. Moreover, the “tumor growth versus control” value in the assay with HL60 MDR tumor (21 day period, single agent) was “increase in tumor growth”. In addition, the “tumor volume, Day 7” value with HL60 MDR tumor (Day 7 after implantation (start of treatment), 200 ug Etomoxir and/or 2.5 mM 2-Deoxy-D-glucose daily IP) is recorded as 36 mm^3. Besides, the “tumor volume, Day 9” value with HL60 MDR tumor (Day 9, 200 ug Etomoxir and/or 2.5 mM 2-Deoxy-D-glucose daily IP) was 71.73 mm^3. For the same compound, the “tumor volume, Day 15” value with HL60 MDR tumor (Day 15, 200 ug Etomoxir and/or 2.5 mM 2-Deoxy-D-glucose daily IP) was determined as 261.35 mm^3. For the same compound, the “tumor volume, Day 21” value with HL60 MDR tumor (Day 21, 200 ug Etomoxir and/or 2.5 mM 2-Deoxy-D-glucose daily IP) was 895.09 mm^3.
